Holding throughout (type): cell-based
A short description of data set [1]: Test on inhibition of Vero cell growth (XTT). Particulars: African green monkey, Vero cells, 3 days culture, read-out: CC50 (concentration inhibiting 50% of cell growth). The procedure: Each test compound was dissolved in dimethyl sulfoxide, adjusted to each concentration using E'MEM, and then dispensed at 0.1 mL/well to 96-well microplates. The Vero cell suspension was prepared at 3×10^4 cells/mL using E'MEM supplemented with 20% FBS, inoculated thereto at 0.1 mL/well, and cultured at 37° C. for 3 days under 5% CO2. At the completion of the culture, PBS supplemented with 1 mg/mL 2,3-bis-(2-methoxy-4-nitro-5-sulfophenyl)-5-((phenylamino)carbonyl)-2H-tetrazolium inner salt monosodium salt (XTT) and 25 μM phenazine methosulfate (PMS) was prepared and added thereto at 50 μL/well. Approximately 2 hours later, the absorbance at 450 nm was measured using a microplate reader.

Data set [2] concerns Pseudomonas aeruginosa ATCC27853 strain. Description: Antibacterial activity, MIC by broth microdilution (CLSI). How it is done:
(§1) The minimum inhibitory concentration (MIC) was measured according to the CLSI (Clinical and Laboratory Standards Institute) standard method using a broth microdilution method given below. The bacteria used were a Pseudomonas aeruginosa ATCC27853 strain, an Escherichia coli ATCC25922 strain and a Klebsiella pneumoniae ATCC13883 strain. Test bacterial cells of each strain cultured overnight in a Mueller-Hinton agar medium were scraped off and suspended at the McFarland 0.5 standard, and this suspension was diluted 10-fold to prepare an inoculum solution. The inoculum solution (0.005 mL) was inoculated to a cation-adjusted Mueller-Hinton medium containing each test compound and cultured at 35° C. for 16 to 20 hours. The minimum drug concentration at which bacterial growth was not visible to the naked eye was defined as MIC.

Data set [3] has as its system Escherichia coli ATCC25922 strain. The description is as above. The procedure:
as §1

Data set [4] has as its system Klebsiella pneumoniae ATCC13883 strain. Described as above. How it is done: as §1

Converted amounts (≈) assume the structure as drawn.

With `CNC(=O)[C@@](C)(C(=O)NO)N(C)C(=O)c1ccc(C#Cc2ccc(COCC(O)CO)cc2)cc1` (stereo partly drawn) [Example 2, (2S)-2-((4-((4-((2,3-dihydroxypropoxy)methyl)phenyl)ethynyl)benzoyl)(methyl)amino)-N-hydroxy-N′,2-dimethylmalonamide], the CC50 at 3 days in data set [1] is no less than 100 µg/mL. In addition, inhibition of growth in data set [2] (MIC) required 1 µg/mL (≈ 2.07 µM).
As to `CNC(=O)[C@@](C)(C(=O)NO)N(C)C(=O)c1ccc(C#Cc2ccc(COCCOC(C)=O)cc2)cc1` [Example 4, 2-((4-((4-((((1S)-2-(hydroxyamino)-1-methyl-1-((methylamino)carbonyl)-2-oxoethyl)(methyl)amino)carbonyl)phenyl)ethynyl)benzyl)oxy)ethyl acetate], the CC50 at 3 days in data set [1] is no less than 100 µg/mL. Moreover, the values for the MIC in data set [3] and in data set [4] were 0.25 µg/mL and 0.5 µg/mL, respectively.
`CNC(=O)[C@@](C)(C(=O)NO)N(C)C(=O)c1ccc(C#Cc2ccc(COC(CO)CO)cc2)cc1` [Example 5, (2S)—N-hydroxy-2-((4-((4-((2-hydroxy-1-(hydroxymethyl)ethoxy)methyl)phenyl)ethynyl)benzoyl)(methyl)amino)-N′,2-dimethylmalonamide]: in data set [1], the CC50 at 3 days is no less than 100 µg/mL.
`CNC(=O)[C@@](C)(C(=O)NO)N(C)C(=O)c1ccc(C#Cc2ccc(C(CO)CO)cc2)cc1` [Example 6, (2S)—N-hydroxy-2-((4-((4-(2-hydroxy-1-(hydroxymethyl)ethyl)phenyl)ethynyl)benzoyl)(methyl)amino)-N′,2-dimethyl-malonamide]: in data set [1], the CC50 at 3 days is no less than 100 µg/mL.
In the case of `CNC(=O)[C@@](C)(C(=O)NO)N(C)C(=O)c1ccc(C#Cc2ccc(COCC(C)(C)O)cc2)cc1` [Example 7, (2S)—N-hydroxy-2-((4-((4-((2-hydroxy-2-methylpropoxy)methyl)phenyl)ethynyl)benzoyl)(methyl)amino)-N′,2-dimethyl-malonamide], the CC50 at 3 days in data set [1] was no less than 100 µg/mL. The MIC stood at 0.25 µg/mL (≈ 0.519 µM) in data set [3], 0.5 µg/mL (≈ 1.04 µM) in data set [4] and 1 µg/mL (≈ 2.08 µM) in data set [2].
As for `CNC(=O)[C@@](C)(C(=O)NO)N(C)C(=O)c1ccc(C#Cc2ccc(CO[C@@H](C)CO)cc2)cc1` [Example 8, (2S)—N-hydroxy-2-((4-((4-(((1S)-2-hydroxy-1-methylethoxy)methyl)phenyl)ethynyl)benzoyl)(methyl)amino)-N′,2-dimethylmalonamide], the CC50 at 3 days in data set [1] is no less than 100 µg/mL. In addition, the MIC in data set [3] was 0.25 µg/mL (≈ 0.535 µM); in data set [4], 1 µg/mL (≈ 2.14 µM); in data set [2], 1 µg/mL (≈ 2.14 µM).
As to `CNC(=O)[C@@](C)(C(=O)NO)N(C)C(=O)c1ccc(C#Cc2ccc(C(CO)OC)cc2)cc1` (stereo partly drawn) [Example 9, (2S)—N-hydroxy-2-((4-((4-(2-hydroxy-1-methoxyethyl)phenyl)ethynyl)benzoyl)(methyl)amino)-N′,2-dimethyl-malonamide], the CC50 at 3 days in data set [1] is no less than 100 µg/mL. In data set [3], this compound returned an MIC of 0.5 µg/mL (≈ 1.1 µM).
Consider `CNC(=O)[C@@](C)(C(=O)NO)N(C)C(=O)c1ccc(C#Cc2ccc(CO[C@H](C)CO)cc2)cc1` [Example 10, (2S)—N-hydroxy-2-((4-((4-(((1R)-2-hydroxy-1-methylethoxy)methyl)phenyl)ethynyl)benzoyl)(methyl)amino)-N′,2-dimethyl-malonamide], for which the CC50 at 3 days in data set [1] is no less than 100 µg/mL. Also, the MIC stood at 0.25 µg/mL (≈ 0.535 µM) in data set [3], 0.5 µg/mL (≈ 1.07 µM) in data set [4] and 1 µg/mL (≈ 2.14 µM) in data set [2].
Turning to `CNC(=O)[C@@](C)(C(=O)NO)N(C)C(=O)c1ccc(C#Cc2ccc(COC3COC3)cc2)cc1` [Example 11, (2S)—N-hydroxy-N′,2-dimethyl-2-(methyl(4-((4-((oxetan-3-yloxy)methyl)phenyl)ethynyl)benzoyl)amino)malonamide], the MIC is 0.0625 µg/mL (≈ 0.134 µM) in data set [3] and 0.5 µg/mL (≈ 1.07 µM) in data set [4].
Consider `CNC(=O)[C@@](C)(C(=O)NO)N(C)C(=O)c1ccc(C#Cc2ccc(/C=C/COC)cc2)cc1` [Example 12, (2S)—N-hydroxy-2-((4-((4-((1E)-3-methoxy-1-propen-1-yl)phenyl)ethynyl)benzoyl)(methyl)amino)-N′,2-dimethyl-malonamide], for which the values for the MIC in data set [3], in data set [4] and in data set [2] were 0.0625 µg/mL (≈ 0.139 µM), 0.125 µg/mL (≈ 0.278 µM) and 1 µg/mL (≈ 2.22 µM), respectively.
Compound `CNC(=O)[C@@](C)(C(=O)NO)N(C)C(=O)c1ccc(C#Cc2ccc(CC(O)CO)cc2)cc1` (stereo partly drawn) [Example 15, (2S)-2-((4-((4-(2,3-dihydroxypropyl)phenyl)ethynyl)benzoyl)(methyl)amino)-N-hydroxy-N′,2-dimethylmalonamide] gave an MIC in data set [2] of 1 µg/mL (≈ 2.21 µM).
The same measure, in the same setting: in the case of `CNC(=O)[C@@](C)(C(=O)NO)N(C)C(=O)c1ccc(C#Cc2ccc(CC(CO)CO)cc2)cc1` [Example 18, (2S)—N-hydroxy-2-((4-((4-(3-hydroxy-2-(hydroxymethyl)propyl)phenyl)ethynyl)benzoyl)(methyl)amino)-N′,2-dimethyl-malonamide] it was 1 µg/mL (≈ 2.14 µM).
In turn, `CNC(=O)[C@@](C)(C(=O)NO)N(C)C(=O)c1ccc(C#Cc2ccc(C(C)OCCO)cc2)cc1` (stereo partly drawn) [Example 21, (2S)—N-hydroxy-2-((4-((4-(1-(2-hydroxyethoxy)ethyl)phenyl)ethynyl)benzoyl)(methyl)amino)-N′,2-dimethyl-malonamide] displayed an MIC in data set [3] of 0.5 µg/mL (≈ 1.07 µM).
As for `CNC(=O)[C@@](C)(C(=O)NO)N(C)C(=O)c1ccc(C#Cc2ccc(C(O)COCCO)cc2)cc1` (stereo partly drawn) [Example 22, (2S)—N-hydroxy-2-((4-((4-(1-hydroxy-2-(2-hydroxyethoxy)ethyl)phenyl)ethynyl)benzoyl)(methyl)amino)-N′,2-dimethyl-malonamide], the CC50 at 3 days in data set [1] is no less than 100 µg/mL. 1 µg/mL (≈ 2.07 µM) was the least that counted as inhibitory in data set [2] (MIC).
`CNC(=O)[C@@](C)(C(=O)NO)N(C)C(=O)c1ccc(C#Cc2ccc([C@@H](O)CO)c(F)c2)cc1` [Example 26, (2S)-2-((4-((4-(1,2-dihydroxyethyl)-3-fluorophenyl)ethynyl)benzoyl)(methyl)amino)-N-hydroxy-N′,2-dimethyl-malonamide] showed an MIC in data set [2] of 1 µg/mL (≈ 2.19 µM).
In data set [2], `CNC(=O)[C@@](C)(C(=O)NO)N(C)C(=O)c1ccc(C#Cc2ccc(C(O)COCCO)c(F)c2)cc1` (stereo partly drawn) [Example 27, (2S)-2-((4-((3-fluoro-4-(1-hydroxy-2-(2-hydroxyethoxy)ethyl)phenyl)ethynyl)benzoyl)(methyl)amino)-N-hydroxy-N′,2-dimethylmalonamide] displayed an MIC of 1 µg/mL (≈ 1.99 µM).
Regarding `CNC(=O)[C@@](C)(C(=O)NO)N(C)C(=O)c1ccc(C#Cc2ccc([C@H](O)COCCCO)cc2)cc1` [Example 28, (2S)—N-hydroxy-2-((4-((4-((1S)-1-hydroxy-2-(3-hydroxypropoxy)ethyl)phenyl)ethynyl)benzoyl)(methyl)amino)-N′,2-dimethyl-malonamide], in data set [1], the CC50 at 3 days is no less than 100 µg/mL. This compound also returned a minimum inhibitory concentration (MIC) in data set [3] of 0.5 µg/mL (≈ 1 µM).
For the compound `CCOC[C@@H](O)c1ccc(C#Cc2ccc(C(=O)N(C)[C@@](C)(C(=O)NC)C(=O)NO)cc2)cc1` [Example 29, (2S)-2-((4-((4-((1S)-2-ethoxy-1-hydroxyethyl)phenyl)ethynyl)benzoyl)(methyl)amino)-N-hydroxy-N′,2-dimethyl-malonamide], the CC50 at 3 days in data set [1] is no less than 100 µg/mL. In addition, the MIC in data set [3] worked out at 0.125 µg/mL (≈ 0.267 µM); in data set [4], 0.5 µg/mL (≈ 1.07 µM).
For `CNC(=O)[C@@](C)(C(=O)NO)N(C)C(=O)c1ccc(C#Cc2ccc([C@@H](O)COC)cc2)cc1` [Example 31, (2S)—N-hydroxy-2-((4-((4-((1R)-1-hydroxy-2-methoxyethyl)phenyl)ethynyl)benzoyl)(methyl)amino)-N′,2-dimethyl-malonamide] the same measures were no less than 100 µg/mL, 0.5 µg/mL (≈ 1.1 µM) and 1 µg/mL (≈ 2.21 µM).
Consider `CNC(=O)[C@@](C)(C(=O)NO)N(C)C(=O)c1ccc(C#Cc2ccc([C@@H](O)CCO)cc2)cc1` [Example 32, (2S)-2-((4-((4-((1S)-1,3-dihydroxypropyl)phenyl)ethynyl)benzoyl)(methyl)amino)-N-hydroxy-N′,2-dimethyl-malonamide], for which the MIC in data set [3] turned out to be 0.5 µg/mL (≈ 1.1 µM); in data set [2] it was 1 µg/mL (≈ 2.21 µM).
Consider `CNC(=O)[C@@](C)(C(=O)NO)N(C)C(=O)c1ccc(C#Cc2ccc([C@H](O)[C@@H](C)O)cc2)cc1` [Example 34, (2S)-2-((4-((4-((1S,2R)-1,2-dihydroxypropyl)phenyl)ethynyl)benzoyl)(methyl)amino)-N-hydroxy-N′,2-dimethyl-malonamide], for which, in data set [1], the CC50 at 3 days was no less than 100 µg/mL. The MIC in data set [3] was 0.5 µg/mL (≈ 1.1 µM); in data set [2] it was 1 µg/mL (≈ 2.21 µM).
On to `CNC(=O)[C@@](C)(C(=O)NO)N(C)C(=O)c1ccc(C#Cc2ccc([C@@H](C)O)cc2)cc1` [Example 37, (2S)—N-hydroxy-2-((4-((4-((1R)-1-hydroxyethyl)phenyl)ethynyl)benzoyl)(methyl)amino)-N′,2-dimethyl-malonamide], for which the results for the MIC in data set [3], in data set [4] and in data set [2] were 0.125 µg/mL (≈ 0.295 µM), 0.5 µg/mL (≈ 1.18 µM) and 1 µg/mL (≈ 2.36 µM), respectively.
`CNC(=O)[C@@](C)(C(=O)NO)N(C)C(=O)c1ccc(C#Cc2ccc([C@H](C)O)cc2)cc1` [Example 38, (2S)—N-hydroxy-2-((4-((4-((1S)-1-hydroxyethyl)phenyl)ethynyl)benzoyl)(methyl)amino)-N′,2-dimethyl-malonamide] registered an MIC in data set [3] of 0.25 µg/mL (≈ 0.59 µM).

The record behind these values is patent US9862676B2, “Hydroxamic acid derivative or salt thereof” (TOYAMA CHEMICAL CO., LTD., priority 2013, dated 2018).
